Where “and” joins values, the source holds several entries; their conditions need not be identical. Equal values may be shown once. Read-outs that look alike come from different tables or passages of the source. Where a SMILES comes first, the peptide text is derived from it.
Experiments:
[1] = test system: Hepatitis A virus (HAV) strain HM-175; test: Virucidal effect of peptides on HAV (residual infectivity by TCID50 titration on Frp3 cells); assay type: cell-based; details: for Viral Titre after Treatment: titration on Frp3 cells; for Viral Titre after Treatment / LRV (log reduction value): mean ± SD, triplicate
Source text: (§1) Murine norovirus strain 1 (MNV-1) was used as a surrogate for human norovirus (NoV). The virus was replicated in RAW 264.7 cells (murine macrophage cell line) cultured in Dulbecco’s modified Eagle’s medium (DMEM) supplemented with 1% glutamine, 1% non-essential amino acids, and 2% fetal bovine serum (FBS). Hepatitis A virus (HAV) strain HM-175 was replicated in Frp3 cells (non-human primate cell line derived from fetal kidney) cultured in minimum essential medium (MEM) with Earle’s salts supplemented with 1% glutamine, 2% non-essential amino acids, and 2% FBS. Both viruses were incubated in 5% CO2 at 37 °C. All cell culture media were provided by EuroClone (Milan, Italy). The viral suspensions were prepared by freeze and thaw lysis (1 cycle for MNV-1 and 3 cycles for HAV) of infected monolayers, clarified using low-speed centrifugation (800× g) to remove residual cell debris, then divided in aliquots, and stored at −80 °C until use.
(§2) Solutions 40 µM and 80 µM of each peptide of the panel (RiLK1, RiLK3, RiLK30, 1018-K6, MTP1, and AVP2) were chosen for the virucidal tests. HAV and MNV-1 were assayed at a concentration of 4.7 ± 0.2 log TCID50/mL and 4.5 ± 0.2 log TCID50/mL, respectively. The suspensions containing the peptides and viruses were incubated for 1 h at room temperature (RT,20 ± 2 °C) and 4 °C. These temperatures were chosen to simulate the use of sanitizing solutions in food production/processing environments. Residual viral infectivity was evaluated by titration (TCID50/mL) on Frp3 cells for HAV and on RAW 264.7 cells for MNV-1. Untreated HAV and MNV-1 suspensions and 40 µM and 80 µM AMP solutions, incubated at the same conditions, were used as controls. Each treatment condition was assayed in triplicate. For titration, 100 µL of serial tenfold dilutions of each sample were assayed in 24-well tissue culture plates containing 24–48 h cell monolayers and incubated for 1 h in 5% CO2 at 37 °C. After that, the wells were washed twice with 200 µL of PBS, and 500 µL of DMEM/MEM, supplemented with 2% of FBS, were was added to each well; MNV-1 and HAV incubations were carried for up to 6 days and 14 days, respectively, in 5% CO2 at 37 °C with daily visual inspection to determine the cytopathic effect. The virucidal efficacy of AMPs was estimated by comparing the titers of treated and untreated viral suspensions.
(§3) For each treatment, the average and standard deviation of the triplicate analyses were calculated. The virucidal effects of AMPs was assessed by calculating the log reduction value (LRV), i.e., the difference between the infectious titer (log-transformed) of untreated versus treated samples. The statistical significance of differences between treated and untreated samples was determined through one-way analysis of variance (ANOVA) with Bonferroni post hoc comparisons, with a significance level of p < 0.05 (GraphPad Prism v9.5.0, software San Diego, CA, USA).

[2] = test system: Murine norovirus strain 1 (MNV-1); assay type: cell-based; details: for Viral Titre after Treatment: titration on RAW 264.7 cells; for Viral Titre after Treatment / LRV (log reduction value): mean ± SD, triplicate
Source text: as §1, §2, §3

[3] = pH 2; cited from earlier work
Method: In this context, to acquire important information on how the conformational properties of peptides might influence the structure–function relationships and their distinct membrane interaction profiles, the propensity of the new peptides, RiLK30 and AVP2, to adopt a defined secondary structure and to undergo conformational changes were examined by circular dichroism and fluorescence spectroscopy. These analyses were performed in the presence of a negatively charged SDS that is commonly used as a biomimetic membrane model to study the structural features of membranotropic molecules. In previous ...

[4] = assay type: physicochemical
Method: Circular Dichroism (CD) analysis was performed by a Jasco J-810 spectropolarimeter. The samples were loaded into a quartz cuvette of 0.1 cm path length (Hellma Analytics), and the spectra were recorded in the 195–250 nm range at a scan speed of 20 nm/min, averaging 5 scans. CD experiments were carried out in 10 mM Tris-HCl buffer, pH 7.0, as a function of SDS concentrations (3, 50, and 150 mM) at a peptide concentration of 50 µM. The folding kinetic measurements of the peptides were performed after the addition of SDS (50 mM) to each sample (50 µM in 10 mM Tris-HCl, pH 7.0) up to 24 h of incubation. For thermal stability analyses, the peptides were prepared to a final concentration of 50 μM in 10 mM Tris-HCl, pH 7.0, and then they were incubated at 4 and 25 °C up to 48 h before acquiring the CD spectra in the presence of 50 mM SDS. A blank spectrum of a sample containing all components except the peptide was acquired for the baseline correction of the CD spectra of the peptide. The mean residue ellipticity ([θ], deg cm^2 dmol^−1) was obtained by the equation [θ] = 100 θ/cnl, where θ is the ellipticity (mdeg), c is the peptide concentration (mM), n is the number of residues, and l is the path length (cm).
Tryptophan (Trp) fluorescence emission spectra were recorded at 25 °C on a Shimadzu RF-6000 spectrofluorometer (Kyoto, Japan), with both excitation and emission slit widths set at 5 nm. The intrinsic Trp was excited at a wavelength of 280 nm and the emission was monitored between 300 and 400 nm. Fluorescence measurements were carried out in 10 mM Tris-HCl buffer, pH 7.0, as a function of SDS concentrations (3, 50, and 150 mM) at a peptide concentration of 50 µM. The folding kinetic experiments of AVP2 and RiLK30 were performed after the addition of SDS (50 mM) to each sample (50 µM concentration in 10 mM Tris-HCl buffer, pH 7.0) up to 24 h of incubation. The effect of temperature on peptide folding was analyzed by dissolving the peptides at a final concentration of 50 µM in 10 mM Tris-HCl buffer, pH 7.0, and incubating them at 4 and 25 °C up to 48 h. The spectra were recorded in the presence of 50 mM SDS.

[5] = HAV 4.7 ± 0.2 log TCID50/mL + peptide 80 µM, 1 h at 4 °C
[6] = HAV + peptide 40 µM, 1 h at 4 °C
[7] = HAV + peptide 40 µM, 1 h at 4 °C, untreated minus treated titre
[8] = HAV + peptide 40 µM, 1 h at RT (20 ± 2 °C)
[9] = HAV + peptide 80 µM, 1 h at 4 °C, untreated minus treated titre
[10] = HAV + peptide 80 µM, 1 h at RT (20 ± 2 °C)
[11] = maximum reduction, corresponding to the highest LRV
[12] = MNV-1 4.5 ± 0.2 log TCID50/mL + peptide 80 µM, 1 h at 4 °C
[13] = MNV-1 + peptide 40 µM, 1 h at 4 °C
[14] = MNV-1 + peptide 40 µM, 1 h at RT (20 ± 2 °C)
[15] = MNV-1 + peptide 80 µM, 1 h at 4 °C
[16] = MNV-1 + peptide 80 µM, 1 h at RT (20 ± 2 °C)

SMILES | Viral Titre after Treatment [1, 5] [logTCID50/mL] | Viral Titre after Treatment [1, 6] [logTCID50/mL] | LRV (log reduction value) [1, 7] [logTCID50/mL] | LRV (log reduction value) [1, 8] [logTCID50/mL] | Viral Titre after Treatment [1, 8] [logTCID50/mL] | LRV (log reduction value) [1, 9] [logTCID50/mL] | LRV (log reduction value) [1, 10] [logTCID50/mL] | Viral Titre after Treatment [1, 10] [logTCID50/mL] | Viral Titre after Treatment [2, 12] [logTCID50/mL] | LRV (log reduction value) [2, 13] [logTCID50/mL] | Viral Titre after Treatment [2, 13] [logTCID50/mL] | LRV (log reduction value) [2, 14] [logTCID50/mL] | Viral Titre after Treatment [2, 14] [logTCID50/mL] | LRV (log reduction value) [2, 15] [logTCID50/mL] | LRV (log reduction value) [2, 16] [logTCID50/mL] | Viral Titre after Treatment [2, 16] [logTCID50/mL] | other results
CC[C@H](C)[C@H](NC(=O)[C@H](CCCNC(=N)N)NC(=O)[C@@H](NC(=O)[C@H](CCCCN)NC(=O)[C@@H](NC(=O)[C@@H](NC(=O)[C@H](CC(C)C)NC(=O)[C@H](CCCNC(=N)N)NC(=O)[C@@H](N)C(C)C)[C@@H](C)CC)C(C)C)C(C)C)C(=O)N[C@@H](Cc1c[nH]c2ccccc12)C(=O)N[C@@H](CCCNC(=N)N)C(=O)N[C@@H](CCCNC(=N)N)C(N)=O [1018-K6] (H-VRLIVKVRIWRR-NH2; N-terminus assumed) | 3.3 ± 0.2 | 3.4 ± 0.1 | 1.3 ± 0.3 | 1.4 ± 0.4 | 3.3 ± 0.2 | 1.4 ± 0.4 | 1.4 ± 0.4 | 3.3 ± 0.2 | 4.3 ± 0.2 | 0 ± 0.3 | 4.5 ± 0.1 | 0 ± 0.4 | 4.5 ± 0.2 | 0.2 ± 0.4 | 0.2 ± 0.4 | 4.3 ± 0.2 | decrease of HAV infectious titer [1, 11]: up to 96.7%; infectivity reduction on HAV ([1]; text summary over 40 µM and 80 µM and the two temperatures (4 °C, RT)): 1.3–1.4 log; virucidal activity toward MNV-1 (in words) ([2]; 40 and 80 µM, 4 °C and RT): no significant effects; structural stability [3]: high structural stability
CC[C@H](C)[C@H](NC(=O)[C@H](Cc1cnc[nH]1)NC(=O)[C@H](CCCCN)NC(=O)[C@@H](NC(=O)[C@@H](NC(=O)[C@H](CC(=O)O)NC(=O)[C@H](Cc1ccccc1)NC(=O)[C@H](Cc1c[nH]c2ccccc12)NC(=O)CN)C(C)C)C(C)C)C(=O)N[C@@H](C)C(=O)N[C@@H](CCCCN)C(=O)N[C@@H](CCCNC(=N)N)C(=O)N[C@@H](Cc1ccccc1)C(N)=O [AVP2, reference compound] (H-GWFDVVKHIAKRF-NH2) | – | – | – | – | – | – | – | – | – | – | – | – | – | – | – | – | thermal (conformational) stability in SDS micellar solution ([4]; pH 7): at least 48 h
CC[C@H](C)[C@H](NC(=O)[C@H](Cc1c[nH]cn1)NC(=O)[C@H](CCCCN)NC(=O)[C@@H](NC(=O)[C@@H](NC(=O)[C@H](CC(=O)O)NC(=O)[C@H](Cc1ccccc1)NC(=O)[C@H](Cc1c[nH]c2ccccc12)NC(=O)CN)C(C)C)C(C)C)C(=O)N[C@@H](C)C(=O)N[C@@H](CCCCN)C(=O)N[C@@H](CCCNC(=N)N)C(=O)N[C@@H](Cc1ccccc1)C(N)=O [AVP2, reference compound] (H-GWFDVVKHIAKRF-NH2; N-terminus assumed) | 4.3 ± 0.2 | 4.3 ± 0.2 | 0.4 ± 0.4 | 0.4 ± 0.4 | 4.3 ± 0.2 | 0.4 ± 0.4 | 0.7 ± 0.5 | 4.0 ± 0.3 | 3.6 ± 0.1 | 0.9 ± 0.3 | 3.6 ± 0.1 | 0.9 ± 0.3 | 3.6 ± 0.1 | 0.9 ± 0.3 | 1.0 ± 0.3 | 3.5 ± 0.1 | virucidal activity toward HAV (in words) ([1]; 40 and 80 µM, 4 °C and RT): limited reduction in infectivity; LRV against MNV-1 ([2]; at both temperatures (4 °C, RT)): 0.9 log and 1.0 log; reduction of MNV-1 infectivity [2, 11]: up to 91.3%; conformational rearrangement over time (CD and fluorescence spectra) ([4]; peptide 50 µM, 10 mM Tris-HCl pH 7.0, SDS 50 mM, 24 h incubation at 37 °C (legend: 25 °C)): did not appear to undergo significant changes
